Measured values taken from PubChem BioAssay (NCI).
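GI50 marks 50% less growth. TGI is the concentration that stops growth completely.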

Key:
Experiment in all cases: NCI-60 cell line screen, 384-well format
MCF7 breast = test system: MCF7 breast
SF-539 CNS = test system: SF-539 CNS
HCC-2998 colon = test system: HCC-2998 colon
786-0 renal = test system: 786-0 renal
SR leukemia = test system: SR leukemia
K-562 leukemia = test system: K-562 leukemia
UO-31 renal = test system: UO-31 renal
NCI/ADR-RES ovarian = test system: NCI/ADR-RES ovarian
HCT-15 colon = test system: HCT-15 colon
ACHN renal = test system: ACHN renal
EKVX NSCLC = test system: EKVX NSCLC
T-47D breast = test system: T-47D breast
MDA-MB-468 breast = test system: MDA-MB-468 breast
HT29 colon = test system: HT29 colon
TK-10 renal = test system: TK-10 renal
UACC-257 melanoma = test system: UACC-257 melanoma
OVCAR-8 ovarian = test system: OVCAR-8 ovarian
CCRF-CEM leukemia = test system: CCRF-CEM leukemia
SF-268 CNS = test system: SF-268 CNS
NCI-H460 NSCLC = test system: NCI-H460 NSCLC
MDA-MB-435 melanoma = test system: MDA-MB-435 melanoma
SF-295 CNS = test system: SF-295 CNS
NCI-H322M lung = test system: NCI-H322M lung
A549 NSCLC = test system: A549 NSCLC
OVCAR-4 ovarian = test system: OVCAR-4 ovarian
SK-MEL-5 melanoma = test system: SK-MEL-5 melanoma
HOP-62 NSCLC = test system: HOP-62 NSCLC
RPMI-8226 leukemia = test system: RPMI-8226 leukemia
BT-549 breast = test system: BT-549 breast
KM12 colon = test system: KM12 colon
OVCAR-3 ovarian = test system: OVCAR-3 ovarian
HL-60(TB) leukemia = test system: HL-60(TB) leukemia
SK-OV-3 ovarian = test system: SK-OV-3 ovarian
HS 578T breast = test system: HS 578T breast
NCI-H23 lung = test system: NCI-H23 lung
SNB-75 CNS = test system: SNB-75 CNS
OVCAR-5 ovarian = test system: OVCAR-5 ovarian
DU-145 prostate = test system: DU-145 prostate
HOP-92 NSCLC = test system: HOP-92 NSCLC
SNB-19 CNS = test system: SNB-19 CNS
NCI-H226 lung = test system: NCI-H226 lung
NCI-H522 lung = test system: NCI-H522 lung
SK-MEL-2 melanoma = test system: SK-MEL-2 melanoma
CAKI-1 renal = test system: CAKI-1 renal
A498 renal = test system: A498 renal
IGROV1 ovarian = test system: IGROV1 ovarian
PC-3 prostate = test system: PC-3 prostate
RXF 393 renal = test system: RXF 393 renal
HCT-116 colon = test system: HCT-116 colon
SW-620 colon = test system: SW-620 colon
U251 glioblastoma = test system: U251 glioblastoma
SN12C renal = test system: SN12C renal
MOLT-4 leukemia = test system: MOLT-4 leukemia

COC(=O)N1c2ccc3c(nc(Cc4ccccc4)n3[C@H]3CCC[C@H](C(=O)O)C3)c2CC[C@@H]1C
GI50 (MCF7 breast): 692 nM
TGI (MCF7 breast): 33.4 µM
GI50 (SF-539 CNS): 20.4 µM
TGI (SF-539 CNS): > 100 µM
GI50 (HCC-2998 colon): 2050 nM
TGI (HCC-2998 colon): 11.8 µM
GI50 ([…]-0 renal): 6.57 µM
TGI (786-0 renal): > 100 µM
GI50 (SR leukemia): 1490 nM
TGI (SR leukemia): 18.3 µM
GI50 (K-562 leukemia): 3.06 µM
TGI (K-562 leukemia): > 100 µM
GI50 (UO-31 renal): 7.99 µM
TGI (UO-31 renal): > 100 µM
GI50 (NCI/ADR-RES ovarian): 82.9 µM
TGI (NCI/ADR-RES ovarian): > 100 µM
GI50 (HCT-15 colon): 14.1 µM
TGI (HCT-15 colon): > 100 µM
GI50 (ACHN renal): 14.5 µM
TGI (ACHN renal): > 100 µM
GI50 (EKVX NSCLC): 47 µM
TGI (EKVX NSCLC): > 100 µM
GI50 (T-47D breast): 10 µM
TGI (T-47D breast): > 100 µM
GI50 (MDA-MB-468 breast): 8.31 µM
TGI (MDA-MB-468 breast): 61.2 µM
GI50 (HT29 colon): 6.35 µM
TGI (HT29 colon): > 100 µM
GI50 (TK-10 renal): 2160 nM
TGI (TK-10 renal): 37.4 µM
GI50 (UACC-257 melanoma): 5.22 µM
TGI (UACC-257 melanoma): 82 µM
GI50 (OVCAR-8 ovarian): 6.82 µM
TGI (OVCAR-8 ovarian): 54.4 µM
GI50 (CCRF-CEM leukemia): 1830 nM
TGI (CCRF-CEM leukemia): 19.2 µM
GI50 (SF-268 CNS): 24.2 µM
TGI (SF-268 CNS): > 100 µM
GI50 (NCI-H460 NSCLC): 31.5 µM
TGI (NCI-H460 NSCLC): > 100 µM
GI50 (MDA-MB-435 melanoma): 14.5 µM
TGI (MDA-MB-435 melanoma): > 100 µM
GI50 (SF-295 CNS): 22 µM
TGI (SF-295 CNS): > 100 µM
GI50 (NCI-H322M lung): 11.1 µM
TGI (NCI-H322M lung): 89.7 µM
GI50 (A549 NSCLC): 26.6 µM
TGI (A549 NSCLC): > 100 µM
GI50 (OVCAR-4 ovarian): 5.43 µM
TGI (OVCAR-4 ovarian): 31 µM
GI50 (SK-MEL-5 melanoma): 2540 nM
TGI (SK-MEL-5 melanoma): 15.6 µM
GI50 (HOP-62 NSCLC): 8.43 µM
TGI (HOP-62 NSCLC): > 100 µM
GI50 (RPMI-8226 leukemia): 133 nM
TGI (RPMI-8226 leukemia): 314 nM
GI50 (BT-549 breast): 2670 nM
TGI (BT-549 breast): 37.6 µM
GI50 (KM12 colon): 14.7 µM
TGI (KM12 colon): > 100 µM
GI50 (OVCAR-3 ovarian): 5.8 µM
TGI (OVCAR-3 ovarian): 75 µM
GI50 (HL-60(TB) leukemia): 32.2 nM
TGI (HL-60(TB) leukemia): 1510 nM
GI50 (SK-OV-3 ovarian): 18.9 µM
TGI (SK-OV-3 ovarian): > 100 µM
GI50 (HS 578T breast): 1670 nM
TGI (HS 578T breast): 33.7 µM
GI50 (NCI-H23 lung): 20 µM
TGI (NCI-H23 lung): > 100 µM
GI50 (SNB-75 CNS): > 100 µM
TGI (SNB-75 CNS): > 100 µM
GI50 (OVCAR-5 ovarian): 12.5 µM
TGI (OVCAR-5 ovarian): 84.7 µM
GI50 (DU-145 prostate): 26.8 µM
TGI (DU-145 prostate): > 100 µM
GI50 (HOP-92 NSCLC): 3.5 µM
TGI (HOP-92 NSCLC): 81.9 µM
GI50 (SNB-19 CNS): 9.78 µM
TGI (SNB-19 CNS): > 100 µM
GI50 (NCI-H226 lung): 2080 nM
TGI (NCI-H226 lung): 40.2 µM
GI50 (NCI-H522 lung): 1600 nM
TGI (NCI-H522 lung): 18.7 µM
GI50 (SK-MEL-2 melanoma): 14.7 µM
TGI (SK-MEL-2 melanoma): > 100 µM
GI50 (CAKI-1 renal): 1480 nM
TGI (CAKI-1 renal): > 100 µM
GI50 (A498 renal): 24.9 µM
TGI (A498 renal): > 100 µM
GI50 (IGROV1 ovarian): 7.99 µM
TGI (IGROV1 ovarian): 77.4 µM
GI50 (PC-3 prostate): 4.78 µM
TGI (PC-3 prostate): > 100 µM
GI50 (RXF 393 renal): 4.47 µM
TGI (RXF 393 renal): 29.5 µM
GI50 (HCT-116 colon): 13.9 µM
TGI (HCT-116 colon): > 100 µM
GI50 (SW-620 colon): > 100 µM
TGI (SW-620 colon): > 100 µM
GI50 (U251 glioblastoma): 25 µM
TGI (U251 glioblastoma): > 100 µM
GI50 (SN12C renal): 11.5 µM
TGI (SN12C renal): > 100 µM
GI50 (MOLT-4 leukemia): 1940 nM
TGI (MOLT-4 leukemia): 16.5 µM
